The source of these data is patent US20130202719A1, “STABILIZED CHLORITE SOLUTIONS IN COMBINATION WITH FLUROPYRIMIDINES FOR CANCER” (NUVO RESEARCH AG, priority 2005, published 2013).

The target in one data set is T1, DPD (Homo sapiens, UniProt Q12882).
T1 construct: More than 80% of an administered dose of 5-FU is eliminated by catabolism through DPD
T1 sequence (Q12882 4-1025): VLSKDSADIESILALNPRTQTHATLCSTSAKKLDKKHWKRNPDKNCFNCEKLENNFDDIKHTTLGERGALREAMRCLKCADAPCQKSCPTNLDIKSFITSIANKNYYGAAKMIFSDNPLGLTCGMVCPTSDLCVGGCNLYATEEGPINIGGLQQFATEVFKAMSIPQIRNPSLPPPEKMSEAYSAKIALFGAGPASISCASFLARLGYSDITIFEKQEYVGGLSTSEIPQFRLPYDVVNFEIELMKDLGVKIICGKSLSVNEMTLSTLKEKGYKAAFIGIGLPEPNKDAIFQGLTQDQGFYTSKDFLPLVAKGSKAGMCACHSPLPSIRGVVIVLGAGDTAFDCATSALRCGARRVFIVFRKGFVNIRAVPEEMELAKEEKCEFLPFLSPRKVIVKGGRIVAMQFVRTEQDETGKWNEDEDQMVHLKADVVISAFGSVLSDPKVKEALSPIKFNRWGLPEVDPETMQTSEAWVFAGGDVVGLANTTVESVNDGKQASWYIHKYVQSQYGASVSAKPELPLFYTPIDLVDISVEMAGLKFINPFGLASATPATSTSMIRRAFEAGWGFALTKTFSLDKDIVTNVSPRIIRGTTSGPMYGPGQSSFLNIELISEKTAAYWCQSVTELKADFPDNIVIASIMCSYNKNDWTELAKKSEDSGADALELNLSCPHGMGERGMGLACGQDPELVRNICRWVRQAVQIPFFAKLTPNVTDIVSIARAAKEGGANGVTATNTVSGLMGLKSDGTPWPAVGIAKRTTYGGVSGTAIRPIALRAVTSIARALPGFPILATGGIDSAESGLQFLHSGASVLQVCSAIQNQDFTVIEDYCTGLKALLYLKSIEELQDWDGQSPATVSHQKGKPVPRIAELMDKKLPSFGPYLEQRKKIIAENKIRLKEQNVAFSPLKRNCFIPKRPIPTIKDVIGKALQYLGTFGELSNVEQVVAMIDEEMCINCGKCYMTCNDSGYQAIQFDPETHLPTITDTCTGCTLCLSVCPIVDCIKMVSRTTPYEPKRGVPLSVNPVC
The conditions noted are these: in vivo; cited from earlier work.

The conditions of data set [1]: phase II study, advanced or metastatic pancreatic cancer; cited from earlier work.

Each structure is given as a SMILES string.

`O=c1[nH]cc(F)c(=O)[nH]1` [5-FU, 5-Fluorouracil]: on DPD, the “administered dose eliminated by catabolism through DPD” value was “More than 80%”.

With `CCCCCOC(=O)Nc1nc(=O)n([C@@H]2O[C@H](C)[C@@H](O)[C@H]2O)cc1F` [capecitabine], the Median survival in data set [1] was 182 days. Where the note is “human, in vivo”, the side effects result is given as “development of Xeloda-related side effects”.

For `Nc1ccn([C@@H]2O[C@H](CO)[C@@H](O)C2(F)F)c(=O)n1` [gemcitabine], for the setting “Case Report #3”, the disease progression entry is reported as “rapidly progressing metastasis”. The QOL entry (Case Report #3, T4NxM1) is “declining QOL”.
